Reference: patent US20250327097A1, “ORGANISMS PRODUCING LESS CROTONIC ACID” (Global Bioenergies, priority 2021, published 2025)

B1: ScFdc-UbiX: Fdc homologue, Uniprot Q03034, co-expressed with UbiX in pETDuet (protein, UniProt Q03034 1-503, looked up)
Ferulic acid decarboxylase 1: MRKLNPALEFRDFIQVLKDEDDLIEITEEIDPNLEVGAIMRKAYESHLPAPLFKNLKGASKDLFSILGCPAGLRSKEKGDHGRIAHHLGLDPKTTIKEIIDYLLECKEKEPLPPITVPVSSAPCKTHILSEEKIHLQSLPTPYLHVSDGGKYLQTYGMWILQTPDKKWTNWSIARGMVVDDKHITGLVIKPQHIRQIADSWAAIGKANEIPFALCFGVPPAAILVSSMPIPEGVSESDYVGAILGESVPVVKCETNDLMVPATSEMVFEGTLSLTDTHLEGPFGEMHGYVFKSQGHPCPLYTVKAMSYRDNAILPVSNPGLCTDETHTLIGSLVATEAKELAIESGLPILDAFMPYEAQALWLILKVDLKGLQALKTTPEEFCKKVGDIYFRTKVGFIVHEIILVADDIDIFNFKEVIWAYVTRHTPVADQMAFDDVTSFPLAPFVSQSSRSKTMKGGKCVTNCIFRQQYERSFDYITCNFEKGYPKGLVDKVNENWKRYGYK
modifications: co-expressed with UbiX
notes: Fdc homologue, Uniprot Q03034, co-expressed with UbiX in pETDuet
B2: CdFdc-UbiX: Fdc homologue, Uniprot B9WJ66, co-expressed with UbiX in pETDuet (protein, UniProt B9WJ66 1-513, looked up)
Ferulic acid decarboxylase 1: MSLNPALKFRDFIQVLKNEGDLIEIDTEVDPNLEVGAITRKAYENKLAAPLFNNLKQDPENIDPKNLFRILGCPGGLRGFGNDHARIALHLGLDSQTPMKEIIDFLVANRNPKKYIPPVLVPNDQSPHKKHHLTKEQIDLTKLPVPLLHHGDGGKFIQTYGMWVLQTPDKSWTNWSIARGMVHDSKSITGLVINPQHVKQVSDAWVAAGKGDKIPFALCFGVPPAAILVSSMPIPDGATEAEYIGGLCNQAVPVVKCETNDLEVPADCEMVFEGYLDRDTLVREGPFGEMHGYCFPKDHHTQPLYRVNHISYRDQAIMPISNPGLCTDETHTLIGGLVSAETKYLISQHPVLSKIVEDVFTPYEAQALWLAVKINTHELVKLKTNAKELSNLVGDFLFRSKECYKVCSILHEIILVGDDIDIFDFKQLIWAYTTRHTPVQDQLYFDDVKPFALAPFASQGPLIKTRQGGKCVTTCIFPKQFTDPDFEFVTCNFNGYPEEVKNKISQNWDKYYK
modifications: co-expressed with UbiX
notes: Fdc homologue, Uniprot B9WJ66, co-expressed with UbiX in pETDuet
B3: UbiX alone: UbiX (E. coli K-12) expressed without Fdc, control (protein, UniProt P0AG03 1-189, looked up)
Flavin prenyltransferase UbiX: MKRLIVGISGASGAIYGVRLLQVLRDVTDIETHLVMSQAARQTLSLETDFSLREVQALADVTHDARDIAASISSGSFQTLGMVILPCSIKTLSGIVHSYTDGLLTRAADVVLKERRPLVLCVRETPLHLGHLRLMTQAAEIGAVIMPPVPAFYHRPQSLDDVINQTVNRVLDQFAITLPEDLFARWQGA
B4: FabV: purified FabV from Treponema denticola (EC 1.3.1.44), Uniprot Q73Q47 (protein, listed as Treponema denticola)
chain: MIVKPMVRNNICLNAHPQGCKKGVEDQIEYTKKRITAEVKAGAKAPKNVLVLGCSNGYGLASRITAAFGYGAATIGVSFEKAGSETKYGTPGWYNNLAFDEAAKREGLYSVTIDGDAFSDEIKAQVIEEAKKKGIKFDLIVYSLASPVRTDPDTGIMHKSVLKPFGKTFTGKTVDPFTGELKEISAEPANDEEAAATVKVMGGEDWERWIKQLSKEGLLEEGCITLAYSYIGPEATQALYRKGTIGKAKEHLEATAHRLNKENPSIRAFVSVNKGLVTRASAVIPVIPLYLASLFKVMKEKGNHEGCIEQITRLYAERLYRKDGTIPVDEENRIRIDDWELEEDVQKAVSALMEKVTGENAESLTDLAGYRHDFLASNGFDVEGINYEAEVERFDRI
modifications: FabV
notes: purified FabV from Treponema denticola (EC 1.3.1.44), Uniprot Q73Q47

Experiments:
TaFdcV = experiment: Acid binding and cycloadduct formation with TaFdcV (UV-Vis, ESI-MS, co-crystallization)
Protocol: TaFdcV (500 μL, 0.45 mM protein, 25 mM HEPES, 150 mM KCl, pH 6.8) was incubated with crotonic or 2-butynoic acid. The formation of the prFMN-crotonic acid cycloadduct was followed by UV-Vis spectroscopy and additional acid were added until full conversion (complete loss of the 380 nm peak). The protein was desalted to 25 mM HEPES, 150 mM KCl, pH 6.8 and plated for crystal trials.

AnFdc = AnFdc (Aspergillus niger, UniProt A2QHE5); experiment: Quantitative GC assay of pentene production from hexenoic acid; assay type: biochemical
[1] = test system: ferulic acid decarboxylase (FDC); experiment: Inhibition of ferulic acid decarboxylase; assay type: biochemical
From the text: In recombinant organisms or microorganisms, 3-methylcrotonic acid, the substrate of FDC, can be produced from acetyl-CoA in a multistep enzymatic process. The final conversion of 3-methylcrotonic acid into isobutene can be carried out in the same recombinant organism or microorganism that has been used for the production of 3-methylcrotonic acid. In such a one-step process, it is required that the recombinant organism or microorganism encodes the enzyme FDC. Alternatively, isobutene may be produced from 3-methylcrotonic acid in a two-step process. For that, a fermentation culture medium of a recombinant organism or microorganism comprising the produced 3-methylcrotonic acid may be contacted with a recombinant organism or microorganism encoding the enzyme FDC in an in vivo or in vitro biotransformation reaction. In an alternative two-step process, a first recombinant organism or microorganism may be used to convert acetyl-CoA into 3-hydroxyisovaleric acid and the produced 3-hydroxyisovaleric acid may then be converted into isobutene by a second recombinant organism or microorganism (via 3-methylcrotonic acid and FDC).

TaFdc = experiment: Acid binding and cycloadduct formation with TaFdc wild-type (UV-Vis)
AnFdc wild-type = AnFdc wild-type (Aspergillus niger, UniProt A2QHE5); experiment: Crotonic acid binding by UV-Vis spectra, AnFdc wild-type; settings: 2-h incubation
AnFdcII = AnFdcII (Aspergillus niger, UniProt A2QHE5, P438W/R435P/T395M); assay type: binding
3-methylcrotonic acid = experiment: Initial in vivo screening of Fdc homologues co-expressed with UbiX for 3-methylcrotonic acid decarboxylation (isobutene by GC); assay type: cell-based, E. coli; settings: isobutene in headspace from 10 mM 3-methylcrotonic acid; Fdc (MCS1, N-terminal 6His-tag) and UbiX (MCS2) in pETDuet
crotonyl-CoA = experiment: Coupled assay positive control: purified FabV with crotonyl-CoA; assay type: biochemical, Treponema denticola; settings: 1 mM crotonyl-CoA, 100 μg/ml FabV, 18 h at 34° C.
Protocol: The acid-CoA ligases were tested as purified enzymes with a coupled assay using purified FabV from Treponema denticola (EC 1.3.1.44) (Uniprot Accession No: Q73Q47) (to convert crotonyl-CoA to butyryl-CoA). The reaction was carried out as follows: 50 μg/ml acid-CoA ligase and 100 μg/ml FabV with a buffered solution containing 100 mM Tris-HCl pH7.5, 20 mM NaCl, 100 mM KCl, 2 mM MgCl2, 1 mM crotonic acid (TCI chemicals), 1 mM ATP (Sigma-Aldrich), 1 mM coenzyme A (Sigma-Aldrich) and 1 mM NADH (Sigma-Aldrich) were incubated 18 h at 34° C. in a water bath, and the reaction was stopped with acetonitrile. […] The produced butyryl-CoA (Sigma-Aldrich) and the consumed crotonic acid (TCI chemicals) were quantified by HPLC with a calibration curve. The samples were injected on a Zorbax SB-Aq column (Agilent) at 30° C. and eluted with 8.4 mM H2SO4 and a gradient of acetonitrile.
The CoA-transferase was tested as purified enzyme with a coupled assay using purified FabV from Treponema denticola (EC 1.3.1.44) (Uniprot Accession No: Q73Q47) (to convert crotonyl-CoA to butyryl-CoA). […] The produced butyryl-CoA (Sigma-Aldrich) and the consumed crotonic acid (TCI chemicals) were quantified by HPLC with a calibration curve. […]

Molecule	binding to TaFdcV, UV-Vis spectrum after desalting (TaFdcV)	inhibition of FDC [1]	ppm Average (3-methylcrotonic acid)	also measured
CC#CC(=O)O [2-butynoic acid]	covalent inhibitory adduct is formed			state of the adduct by ESI-MS and co-crystallization (TaFdcV): stalls as Int1
CCCC=CC(=O)O [2-hexenoic acid]	irreversibly binds	irreversible inhibitors		pentene production from hexenoic acid (AnFdc): limited to a single turnover; binding to TaFdc, UV-Vis spectrum after desalting (TaFdc): irreversibly binds
CCC=CC(=O)O [2-pentenoic acid]	irreversibly binds	irreversible inhibitors		binding to TaFdc, UV-Vis spectrum after desalting (TaFdc): irreversibly binds
C/C=C/C(=O)O [crotonic acid]	covalent inhibitory adduct is formed	irreversible inhibitors		binding by UV-Vis spectra (AnFdc wild-type): cannot be detected; binding by UV-Vis spectra (AnFdcII): readily bind the inhibitor
B1			17.6 ppm	
B2			4.8 ppm	
B3			3.3 ppm	
B4				conversion of crotonyl-CoA to butyryl-CoA (crotonyl-CoA): could convert all of it to butyryl-CoA
